Biological target: recombinant form of Glutaminase 1 (GAC) (Homo sapiens, UniProt O94925)
Assay: Recombinant Enzyme Assay (GAC coupled to GDH, NADH absorbance, no preincubation)
Assay type: biochemical
Conditions: no preincubation; read-out: GAC Delta N2 IC50 no preinc
Protocol: Enzymatic reaction was started with the addition of 50 μL of enzyme solution (50 mM Tris-HCl pH 8.0, 0.2 mM EDTA, 150 mM K2HPO4, 0.1 mg/ml BSA, 1 mM DTT, 10 ppm antifoam, 4 units/ml GDH, 4 mM adenosine diphosphate, and 4 nM GAC) and read in a Molecular Devices M5 plate reader at 20° C. The plate reader was configured to read absorbance (λ=340 nm) in kinetic mode for 15 minutes. Data was recorded as milli-absorbance units per minute and slopes were compared to a control compound and a DMSO-only control on the same plate. Compounds with slopes less than the DMSO control were considered inhibitors and plate variability was assessed using the control compound.

Compound | IC50 [nM]
N[C@@H](CO)C(=O)Nc1nnc(CCCCc2nnc(NC(=O)[C@@H](N)CO)s2)s1 [Compound 140] | 3400
CC[C@](O)(C(=O)Nc1nnc(CCSCCc2nnc(NC(=O)[C@@](O)(CC)c3ccccc3)s2)s1)c1ccccc1 [Compound 141] | 1700
CC[C@@](O)(C(=O)Nc1nnc(CCSCCc2nnc(NC(=O)[C@](O)(CC)c3ccccc3)s2)s1)c1ccccc1 [Compound 142] | > 20000
CC[C@](O)(C(=O)Nc1nnc(CCCCc2nnc(NC(=O)[C@@](O)(CC)c3ccccc3)s2)s1)c1ccccc1 [Compound 143] | 570
O=C(Cc1ccccc1)Nc1nnc(CSCc2nnc(NC(=O)Cc3ccccc3)s2)s1 [Compound 145] | > 20000
O=C(Nc1nnc(CCCCc2nnc(NC(=O)[C@@H](O)Cc3ccccc3)s2)s1)[C@@H](O)Cc1ccccc1 [Compound 146] | 430
CO[C@@H](C(=O)Nc1nnc(CCCCc2nnc(NC(=O)[C@H](OC)c3ccccc3)s2)s1)c1ccccc1 [Compound 147] | 620
CO[C@H](C(=O)Nc1nnc(CCCCc2nnc(NC(=O)[C@@H](OC)c3ccccc3)s2)s1)c1ccccc1 [Compound 148] | 590
O=C(Cc1ccccc1)Nc1nnc(CCNCCc2nnc(NC(=O)Cc3ccccc3)s2)s1 [Compound 149, N,N′-(5,5′-(azanediyl-bis(ethane-2,1-diyl))-bis(1,3,4-thiadiazole-5,2-diyl))-bis(2-phenylacetamide) trifluoroacetic acid] | 15000
CCN(C(=O)Cc1ccccc1)c1nnc(CCSCCc2nnc(N(CC)C(=O)Cc3ccccc3)s2)s1 [Compound 150] | > 20000
CC(CO)(CO)C(=O)Nc1nnc(CCCCc2nnc(NC(=O)C(C)(CO)CO)s2)s1 [Compound 151] | 14000
CC(CO)(CO)C(=O)Nc1nnc(CCCCc2nnc(NC(=O)Cc3cccc(F)c3)s2)s1 [Compound 152, N,N′-(5-(4-(5-(2-(3-fluorophenyl)acetamido)-1,3,4-thiadiazol-2-yl)butyl)-1,3,4-thiadiazol-2-yl)-3-hydroxy-2-(hydroxymethyl)-2-methylpropanamide] | 730
O=C(C[C@@H](O)C(=O)O)Nc1nnc(CCCCc2nnc(NC(=O)C[C@@H](O)C(=O)O)s2)s1 [Compound 154] | 19000
N#Cc1cccc(CC(=O)Nc2nnc(CCSCCc3nnc(NC(=O)Cc4cccc(C#N)c4)s3)s2)c1 [Compound 155] | 270
COc1ccc(CC(=O)Nc2nnc(CCSCCc3nnc(NC(=O)Cc4ccc(OC)c(OC)c4)s3)s2)cc1OC [Compound 157] | 340
CS(=O)(=O)c1cccc(CC(=O)Nc2nnc(CCSCCc3nnc(NC(=O)Cc4cccc(S(C)(=O)=O)c4)s3)s2)c1 [Compound 158] | 220
COc1ccc(CC(=O)Nc2nnc(CCCCc3nnc(NC(=O)Cc4ccc(OC)c(OC)c4)s3)s2)cc1OC [Compound 160] | 160
COc1ccc(CC(=O)Nc2nnc(CCSCCc3nnc(NC(=O)Cc4ccc(OC)cc4)s3)s2)cc1 [Compound 161] | 150
CN(C)c1ccc(CC(=O)Nc2nnc(CCSCCc3nnc(NC(=O)Cc4ccc(N(C)C)cc4)s3)s2)cc1 [Compound 162] | 230
CN(C)c1ccc(CC(=O)Nc2nnc(CCCCc3nnc(NC(=O)Cc4ccc(N(C)C)cc4)s3)s2)cc1 [Compound 164] | 240
COCC(C(=O)Nc1nnc(CCCCc2nnc(NC(=O)C(COC)c3ccccc3)s2)s1)c1ccccc1 (stereo not shown) [Compound 165] | 510
O=C(Nc1nnc(CCCCc2nnc(NC(=O)C3(c4ccccc4)CCOCC3)s2)s1)C1(c2ccccc2)CCOCC1 [Compound 166] | 7400
O=C(Nc1nnc(CCCCc2nnc(NC(=O)C3(c4cccs4)CCOCC3)s2)s1)C1(c2cccs2)CCOCC1 [Compound 167] | 11000
O=C(Nc1nnc(CCCCc2nnc(NC(=O)C3(c4ccccc4)CC3)s2)s1)C1(c2ccccc2)CC1 [Compound 168] | 1300
O=C(Nc1nnc(CCCCc2nnc(NC(=O)[C@H](O)Cc3ccccc3)s2)s1)[C@H](O)Cc1ccccc1 [Compound 169] | 710

Reference: patent US8604016B2, “Heterocyclic inhibitors of glutaminase” (Calithera Biosciences Inc., priority 2011, dated 2013)
